From US20230172940A1, “METHODS OF EXTENDING LIFESPAN BY ADMINISTERING FERROPTOSIS INHIBITORS” (COLLABORATIVE MEDICINAL DEVELOPMENT, LLC, priority 2020, published 2023)
Like-named read-outs stand apart in the source and are kept apart here.

Tests used:
RSL3 = assay: IC50 (RSL3), Table 1; assay type: cell-based
C. elegans strain TJ1060 = assay: Lifespan determination; assay type: in vivo, Caenorhabditis elegans; conditions: alternative ferroptosis inhibitor
Protocol: Lifespan was measured using established protocols. SIH was dissolved in neat dimethyl sulfoxide (DMSO; Sigma-Aldrich) then added to the molten NGM at 55° C. (to a final concentration of 250 μM SIH in 0.5% v/v DMSO). Lip-1 was dissolved in neat DMSO then added to the molten NGM at 55° C. (to a final concentration of 200 μM Lip-1 in 0.5% v/v DMSO). Media containing equivalent vehicle alone (0.5% v/v DMSO) was used for comparison. Standard overnight culture of the Escherichia coli (E. coli) strain OP50 was used as the food source.
Lifespan data was collected at 25 (±1) ° C. using the temperature sensitive-sterile strain TJ1060 [spe-9(hc88); fer-15(b26)]. A synchronous population was obtained by transferring egg-laying adults to fresh plates at 16° C. for 2-3 hours. The adults were removed and the plates with eggs then transferred to 25° C. to ensure sterility. After 48 hours at 25° C., when worms were at the late L4/young adult stage, 25-35 nematodes were transferred to fresh plates containing either vehicle control, 250 μM SIH, or 200 μM Lip-1. All plates were coded to allowing blinding of the experimenter to the treatment regime during scoring. Nematodes were scored for survival at one to three-day intervals and transferred to freshly prepared plates as needed (2-5 days).
It is well documented that differences are observed between independent measures of lifespan, with micro-environmental factors such as minor temperature fluctuations potentially resulting differences in median and maximum lifespan between replicates. After determining the optimal doses of 250 μM SIH and 200 μM Lip-1, respectively, cohorts of nematodes were compared in 8 independent replicates. As the number of worms measured is known to influence the likelihood of accurately observing differences in lifespan, the starting populations for all treatments within experiments were in excess of 70 individuals.

Structure (SMILES) | IC50 (RSL3) | further results
CCCCC(O)c1nc2c(c(Nc3ccccn3)n1)NCCC2 (stereo not drawn) [Compound G-63, 1-[4-(2-pyridylamino)-5,6,7,8-tetrahydropyrido[3,2-d]pyrimidin-2-yl]pentan-1-ol] | – | IC50 (RSL3; unit cell prints uM): > 10000 nM
Cc1ccc(-c2nc3c(c(NC4CCCC4)n2)NCCC3)cc1 [Compound A-32, N-cyclopentyl-2-(p-tolyl)-5,6,7,8-tetrahydropyrido[3,2-d]pyrimidin-4-amine] | 6 nM | –
CNC(=O)c1nc(-c2ccc(C)cc2)nc2c1NC(C)(C)N2C1CCCC1 [Compound K-34, 9-cyclopentyl-N,8,8-trimethyl-2-(p-tolyI)-5,7-dihydro-4H-purine-6-carboxamide] | – | IC50 (RSL3; unit cell prints uM): > 10000 nM
CCCCC(=O)c1cc(F)c2c(c1)CCCN2 [Compound B-132] | > 3000 nM | –
CCCCC(=O)c1nc2c(c(Nc3ccccn3)n1)NCCC2 [Compound G-65, 1-[4-(2-pyridylamino)-5,6,7,8-tetrahydropyrido[3,2-d]pyrimidin-2-yl]pentan-1-one] | – | IC50 (RSL3; unit cell prints uM): > 10000 nM
CON(C)C(=O)c1ccc2c(c1)C=CC(C)(C)N2 [Compound B-065] | > 3000 nM | –
CCOC(=O)c1cc2c(c(C(=O)C(F)(F)F)c1)NC(C)(C)C=C2 [Compound B-101, Ethyl 2,2-dimethyl-8-(2,2,2-trifluoroacetyl)-1,2-dihydroquinoline-6-carboxylate] | > 3000 nM | –
CCC/C=C/c1nc(NC2CCCC2)c2c(n1)SCC(=O)N2 [Compound B-600, 4-(cyclopentylamino)-2-[(1E)-pent-1-en-1-yl]-5H,6H,7H-pyrimido[4,5-b][1,4]thiazin-6-one] | ≥ 3000 nM | –
CCCCC(=O)c1cc2c(c(NC3CCCC3)c1)OCCC2 [Compound B-035, 1-[8-(cyclopentylamino)-3,4-dihydro-2H-1-benzopyran-6-yl]pentan-1-one] | > 3000 nM | –
CCOC(=O)c1ccc(NC2CCCCC2)c(N)c1 [ferrostatin] | – | median lifespan extension (C. elegans strain TJ1060): significant but more modest median lifespan extension
CCCCC(OC)c1cc2c(c(Nc3ccccn3)c1)NCCC2 (stereo not drawn) [Compound B-397, 6-(1-methoxypentyI)-N-(2-pyridyl)-1,2,3,4-tetrahydroquinolin-8-amine] | 70 nM | –
CCCCCc1nc(NC2CCCC2)c2c(n1)OCCN2 [Compound B-711, N-cyclopentyl-2-pentyl-5H,6H,7H-pyrimido[4,5-b][1,4]oxazin-4-amine] | 41 nM | –
CCCCC(=O)c1cc2c(c(OC3CCCC3)c1)NCCC2 [Compound Q-980, 1-[8-(cyclopentoxy)-1,2,3,4-tetrahydroquinolin-6-yl]pentan-1-one] | > 3000 nM | –
CCCCC(=O)c1cc2c(c(N(S(=O)(=O)CC(C)C)S(=O)(=O)CC(C)C)c1)NCCC2 [Compound B-248, N-isobutylsulfonyl-2-methyl-N-(6-pentanoyl-1,2,3,4-tetrahydroquinolin-8-yl)propane-1-sulfonamide] | > 3000 nM | –
CCCCCc1nc(NC2CCCC2)c2c(n1)SCCN2 [Compound B-601, N-cyclopentyl-2-pentyl-5H,6H,7H-pyrimido[4,5-b][1,4]thiazin-4-amine] | 3 nM | –
CCCCC(=O)c1cc2c(c(-n3ccnc3)c1)NCCC2 [Compound B-006, 1-(8-imidazol-1-yl-1,2,3,4-tetrahydroquinolin-6-yl)pentan-1-one] | > 3000 nM | –
CCC/C=C/c1nc2c(c(NC3CCCC3)n1)NCCC2 [Compound B-388, N-cyclopentyl-2-[(E)-pent-1-enyl]-5,6,7,8-tetrahydropyrido [3,2-d]pyrimidin-4-amine] | 40 nM | –
CCCCC(=O)c1cc2c(c(NC3CCCC3)n1)NCCC2 [Compound B-647, 1-[8-(cyclopentylamino)-1,2,3,4-tetrahydro-1,7-naphthyridin-6-yl]pentan-1-one] | 8 nM | –
CCC/C=C/c1nc(NC2CCOC2)c2c(n1)OCC(=O)N2 (stereo not drawn) [Compound B-603, 4-[(oxolan-3-yl)amino]-2-[(1E)-pent-1-en-1-yl]-5H,6H,7H-pyrimido[4,5-b][1,4]oxazin-6-one] | > 3000 nM | –
CCCCC(=O)c1cc2c3c(c1)nc(C(F)(F)F)n3CCC2 [Compound B-099, 1-[2-(trifluoromethyl)-1,3-diazatricyclo[6.3.1.04,12]dodeca-2,4(12),5,7-tetraen-6-yl]pentan-1-one] | > 3000 nM | –
CCCCCc1nc(NC2CCCC2)c2c(n1)S(=O)(=O)CCN2 [Compound B-602, N-cyclopentyl-8,8-dioxo-2-pentyl-6,7-dihydro-5H-pyrimido[4,5-b][1,4]thiazin-4-amine] | ≥ 3000 nM | –
CCCCCc1nc2c(c(NC3CCCC3)n1)NC(C)(C)CC2 [Compound B-917, N-cyclopentyl-6,6-dimethyl-2-pentyl-5H,6H,7H,8H-pyrido[3,2-d]pyrimidin-4-amine] | > 3000 nM | –
Cc1ccc(-c2ccc(NC(C)(C)C)c(NC3CCCC3)n2)cc1 [Compound A-98, N^3-tert-butyl-N^2-cyclopentyl-6-(p-tolyl)pyridine-2,3-diamine] | 7 nM | –

More lines, main results first:

IC50 (RSL3) | Structure (SMILES) | further results
5 nM | Cc1ccc(-c2ccc(NC3COC3)c(NC3CCCC3)n2)cc1 [Compound H-81, N^2-cyclopentyl-N^3-(oxetan-3-yl)-6-(p-tolyl)pyridine-2,3-diamine] | –
5 nM | CCC(C)Nc1ccc(-c2cccnc2)nc1NC1CCCC1 (stereo not drawn) [Compound H-74, N^2-cyclopentyl-6-(3-pyridyl)-N^3-sec-butyl-pyridine-2,3-diamine] | –
> 625 nM | CC(C)=Cc1nc(C)nc(NC2CCCC2)c1N [Compound F-99, N^4-cyclopentyl-2-methyl-6-(2-methylprop-1-enyl)pyrimidine-4,5-diamine] | –
7 nM | CCC(C)Nc1ccc(-c2cncnc2)nc1NC1CCCC1 (stereo not drawn) [Compound H-80, N^2-cyclopentyl-6-pyrimidin-5-yl-N^3-sec-butyl-pyridine-2,3-diamine] | –
> 3000 nM | CCCCC(=O)c1cc2c(c(-c3ccncc3)c1)NCCC2 [Compound Q-950, 1-[8-(4-pyridyI)-1,2,3,4-tetrahydroquinolin-6-yl]pentan-1-one] | –
> 625 nM | c1ncc(-c2ncc(NC3COC3)c(NC3CCCC3)n2)cn1 [Compound F-82, N^4-cyclopentyl-N^5-(oxetan-3-yl)-2-pyrimidin-5-yl-pyrimidine-4,5-diamine] | –
6 nM | CCCCCc1ccc(NC(C)CC)c(NC2CCCC2)n1 (stereo not drawn) [Compound H-72, N^2-cyclopentyl-6-pentyl-N^3-sec-butyl-pyridine-2,3-diamine] | –
> 1000 nM | CCOC(=O)c1cc(N)c2c(c1)OCCN2 [Compound H-85] | –
3 nM | COc1ccc(-c2ccc(NC3COC3)c(NC3CCCC3)n2)cc1 [Compound H-87, N^2-cyclopentyl-6-(4-methoxyphenyl)-N^3-(oxetan-3-yl)pyridine-2,3-diamine] | –
1 nM | CC1(Nc2nc(-c3ccc(F)cc3)ccc2NC2CCOCC2)CCOC1 (stereo not drawn) [Compound N-53, 6-(4-fluorophenyl)-N^2-(3-methyltetrahydrofuran-3-yl)-N^3-tetrahydropyran-4-yl-pyridine-2,3-diamine] | –
40 nM | CCCCC(O)c1cc2c(c(NC(C)(C)C)n1)NCC(C(F)(F)F)C2 (stereo not drawn) [Compound R-812, 1-[8-(tert-butylamino)-3-(trifluoromethyl)-1,2,3,4-tetrahydro-1,7-naphthyridin-6-yl]pentan-1-ol] | –
> 3000 nM | CC1=Nc2cc(C#N)ccc2NC1(C)C [Compound Q-912, 2,2,3-trimethyl-1H-quinoxaline-6-carbonitrile] | –
7 nM | CCC(C)Nc1ccc(-c2ccc(C)cc2)nc1NC1CCCC1 (stereo not drawn) [Compound H-61, N^2-cyclopentyl-6-(p-tolyl)-N^3-sec-butyl-pyridine-2,3-diamine] | –
8 nM | CCC(C)Nc1ccc(-c2ccc(OC)cc2)nc1NC1CCCC1 (stereo not drawn) [Compound H-86, N^2-cyclopentyl-6-(4-methoxyphenyl)-N^3-sec-butyl-pyridine-2,3-diamine] | –
5 nM | CCC(C)Nc1ccc(-c2ccc(C)cc2)nc1NC(C)(C)C [Compound L-02, N^2-tert-butyl-6-(p-tolyl)-N^3-sec-butyl-pyridine-2,3-diamine] | –
3 nM | CC1(Nc2nc(-c3ccc(F)cc3)ccc2NC2CCC2)CCOC1 (stereo not drawn) [Compound P-54, N^3-cyclobutyl-6-(4-fluorophenyl)-N^2-(3-methyltetrahydrofuran-3-yl)pyridine-2,3-diamine] | –
5 nM | CC(C)(C)Nc1ccc(-c2ccncc2)nc1NC1CCCC1 [Compound L-04, N^3-tert-butyl-N^2-cyclopentyl-6-(4-pyridyl)pyridine-2,3-diamine] | –
6 nM | CCC(C)Nc1ccc(-c2ccncc2)nc1NC1CCCC1 (stereo not drawn) [Compound H-76, N^2-cyclopentyl-6-(4-pyridyl)-N^3-sec-butyl-pyridine-2,3-diamine] | –
1 nM | CCC(C)Nc1ccc(-c2ccncc2)nc1NC(C)(C)C (stereo not drawn) [Compound P-22] | –
